Assay results taken from the NIST ThermoML archive (doi:10.1016/j.jct.2016.03.035).
“And” between values parts separate entries of the source, which are not always exact repeats. Identical values can stand only once.

Experiment: xn = mol fraction of the nth substance listed
Details: Gas, Buoyancy - hydrostatic balance with magnetic suspension - two sinkers

C [methane] + CCC
Details	mass density
248.15 K, 96.6 kPa, x1 = 0.2658	1.7468 kg/m3
248.15 K, 120.09 kPa, x1 = 0.5069	1.764 kg/m3 and 1.7641 kg/m3 and 1.7642 kg/m3
248.15 K, 141.7 kPa, x1 = 0.2658	2.5863 kg/m3 and 2.5861 kg/m3 and 2.5862 kg/m3
248.15 K, 183.4 kPa, x1 = 0.5069	2.7166 kg/m3 and 2.7162 kg/m3 and 2.7167 kg/m3
248.15 K, 184.56 kPa, x1 = 0.2658	3.3989 kg/m3 and 3.3987 kg/m3
248.15 K, 220.8 kPa, x1 = 0.2658	4.0983 kg/m3 and 4.0981 kg/m3 and 4.0981 kg/m3
248.15 K, 244.4 kPa, x1 = 0.5069	3.6494 kg/m3 and 3.6497 kg/m3 and 3.6499 kg/m3
248.15 K, 251.13 kPa, x1 = 0.2658	4.6927 kg/m3 and 4.6924 kg/m3 and 4.6926 kg/m3
248.15 K, 271.98 kPa, x1 = 0.2658	5.1061 kg/m3
248.15 K, 271.99 kPa, x1 = 0.2658	5.1059 kg/m3
248.15 K, 275.99 kPa, x1 = 0.2658	5.186 kg/m3 and 5.1858 kg/m3 and 5.1858 kg/m3
248.15 K, 303.31 kPa, x1 = 0.5069	4.5661 kg/m3 and 4.566 kg/m3 and 4.5662 kg/m3
248.15 K, 360.5 kPa, x1 = 0.5069	5.4703 kg/m3 and 5.4702 kg/m3 and 5.4702 kg/m3
248.15 K, 424.87 kPa, x1 = 0.5069	6.5058 kg/m3 and 6.5052 kg/m3 and 6.5054 kg/m3
248.16 K, 96.6 kPa, x1 = 0.2658	1.7471 kg/m3 and 1.747 kg/m3
248.16 K, 390.03 kPa, x1 = 0.7498	4.4827 kg/m3
248.16 K, 390.04 kPa, x1 = 0.7498	4.4825 kg/m3 and 4.4826 kg/m3
248.16 K, 500.33 kPa, x1 = 0.7498	5.7987 kg/m3 and 5.7985 kg/m3 and 5.7986 kg/m3
248.16 K, 580.7 kPa, x1 = 0.7498	6.7716 kg/m3 and 6.7717 kg/m3
248.16 K, 685.07 kPa, x1 = 0.7498	8.055 kg/m3 and 8.0552 kg/m3
248.16 K, 786.23 kPa, x1 = 0.7498	9.3205 kg/m3
248.16 K, 786.24 kPa, x1 = 0.7498	9.3204 kg/m3 and 9.3205 kg/m3
248.16 K, 835.59 kPa, x1 = 0.7498	9.9462 kg/m3
248.16 K, 835.6 kPa, x1 = 0.7498	9.946 kg/m3 and 9.9461 kg/m3
248.16 K, 859.93 kPa, x1 = 0.7498	10.2556 kg/m3
248.16 K, 859.95 kPa, x1 = 0.7498	10.2561 kg/m3 and 10.2559 kg/m3
248.16 K, 884.03 kPa, x1 = 0.7498	10.5636 kg/m3 and 10.5634 kg/m3 and 10.5637 kg/m3
248.17 K, 276.07 kPa, x1 = 0.7498	3.1457 kg/m3
248.17 K, 276.08 kPa, x1 = 0.7498	3.1457 kg/m3 and 3.1455 kg/m3
273.14 K, 124.74 kPa, x1 = 0.5069	1.6598 kg/m3 and 1.6598 kg/m3
273.14 K, 258.4 kPa, x1 = 0.5069	3.4826 kg/m3
273.15 K, 124.75 kPa, x1 = 0.5069	1.6598 kg/m3
273.15 K, 167.48 kPa, x1 = 0.2658	2.7681 kg/m3 and 2.7679 kg/m3
273.15 K, 167.49 kPa, x1 = 0.2658	2.7677 kg/m3
273.15 K, 218.01 kPa, x1 = 0.5069	2.9256 kg/m3
273.15 K, 218.04 kPa, x1 = 0.5069	2.9262 kg/m3
273.15 K, 218.06 kPa, x1 = 0.5069	2.9265 kg/m3
273.15 K, 242.18 kPa, x1 = 0.2658	4.0482 kg/m3 and 4.0482 kg/m3
273.15 K, 258.4 kPa, x1 = 0.5069	3.4831 kg/m3
273.15 K, 258.41 kPa, x1 = 0.5069	3.4831 kg/m3
273.15 K, 262.29 kPa, x1 = 0.5069	3.5352 kg/m3
273.15 K, 269.26 kPa, x1 = 0.5069	3.6315 kg/m3
273.15 K, 277.28 kPa, x1 = 0.5069	3.7427 kg/m3
273.15 K, 309 kPa, x1 = 0.5069	4.1836 kg/m3
273.15 K, 316.31 kPa, x1 = 0.5069	4.2857 kg/m3
273.15 K, 321.34 kPa, x1 = 0.5069	4.3577 kg/m3 and 4.3576 kg/m3
273.15 K, 321.35 kPa, x1 = 0.5069	4.3574 kg/m3
273.15 K, 323.08 kPa, x1 = 0.5069	4.3804 kg/m3
273.15 K, 340.33 kPa, x1 = 0.5069	4.6223 kg/m3
273.15 K, 340.34 kPa, x1 = 0.5069	4.6226 kg/m3
273.15 K, 340.36 kPa, x1 = 0.5069	4.6229 kg/m3
273.15 K, 344.34 kPa, x1 = 0.2658	5.85 kg/m3 and 5.8499 kg/m3 and 5.85 kg/m3
273.15 K, 401.7 kPa, x1 = 0.2658	6.8907 kg/m3 and 6.8903 kg/m3
273.15 K, 401.71 kPa, x1 = 0.2658	6.8904 kg/m3
273.15 K, 402.73 kPa, x1 = 0.5069	5.504 kg/m3
273.15 K, 406.4 kPa, x1 = 0.2658	6.9763 kg/m3
273.15 K, 406.45 kPa, x1 = 0.2658	6.9765 kg/m3 and 6.9764 kg/m3
273.15 K, 409.05 kPa, x1 = 0.5069	5.5939 kg/m3
273.15 K, 415.33 kPa, x1 = 0.5069	5.6832 kg/m3
273.15 K, 430.79 kPa, x1 = 0.2658	7.4249 kg/m3
273.15 K, 430.8 kPa, x1 = 0.2658	7.4251 kg/m3
273.15 K, 441.05 kPa, x1 = 0.5069	6.0518 kg/m3
273.15 K, 441.3 kPa, x1 = 0.5069	6.0554 kg/m3
273.15 K, 441.54 kPa, x1 = 0.5069	6.0588 kg/m3
273.15 K, 453.5 kPa, x1 = 0.5069	6.23 kg/m3
273.15 K, 453.52 kPa, x1 = 0.5069	6.23 kg/m3
273.15 K, 453.54 kPa, x1 = 0.5069	6.2304 kg/m3
273.15 K, 486.09 kPa, x1 = 0.2658	8.458 kg/m3 and 8.4582 kg/m3
273.15 K, 486.1 kPa, x1 = 0.2658	8.4581 kg/m3
273.15 K, 491.06 kPa, x1 = 0.5069	6.7718 kg/m3
273.15 K, 491.73 kPa, x1 = 0.2658	8.5643 kg/m3 and 8.5641 kg/m3 and 8.564 kg/m3
273.15 K, 497.16 kPa, x1 = 0.5069	6.8601 kg/m3
273.15 K, 500.88 kPa, x1 = 0.7498	5.2229 kg/m3
273.15 K, 500.89 kPa, x1 = 0.7498	5.2229 kg/m3
273.15 K, 503.23 kPa, x1 = 0.5069	6.9481 kg/m3
273.15 K, 506.92 kPa, x1 = 0.5069	7.0016 kg/m3
273.15 K, 506.93 kPa, x1 = 0.5069	7.0019 kg/m3
273.15 K, 506.95 kPa, x1 = 0.5069	7.0022 kg/m3
273.15 K, 537.7 kPa, x1 = 0.2658	9.4418 kg/m3 and 9.4416 kg/m3
273.15 K, 537.71 kPa, x1 = 0.2658	9.4418 kg/m3
273.15 K, 554.75 kPa, x1 = 0.5069	7.701 kg/m3
273.15 K, 555.81 kPa, x1 = 0.5069	7.717 kg/m3
273.15 K, 556.85 kPa, x1 = 0.5069	7.7324 kg/m3
273.15 K, 562.21 kPa, x1 = 0.2658	9.9156 kg/m3 and 9.9157 kg/m3
273.15 K, 568.57 kPa, x1 = 0.2658	10.0393 kg/m3 and 10.0391 kg/m3
273.15 K, 607.74 kPa, x1 = 0.5069	8.4834 kg/m3
273.15 K, 607.75 kPa, x1 = 0.5069	8.4836 kg/m3
273.15 K, 607.76 kPa, x1 = 0.5069	8.484 kg/m3
273.15 K, 608.84 kPa, x1 = 0.2658	10.8308 kg/m3 and 10.8306 kg/m3
273.15 K, 611.36 kPa, x1 = 0.5069	8.5381 kg/m3
273.15 K, 612.13 kPa, x1 = 0.5069	8.5492 kg/m3
273.15 K, 612.89 kPa, x1 = 0.5069	8.5606 kg/m3
273.15 K, 615.59 kPa, x1 = 0.2658	10.9646 kg/m3 and 10.9644 kg/m3 and 10.9642 kg/m3
273.15 K, 619.26 kPa, x1 = 0.5069	8.6551 kg/m3
273.15 K, 625.49 kPa, x1 = 0.5069	8.7476 kg/m3
273.15 K, 631.66 kPa, x1 = 0.5069	8.8402 kg/m3
273.15 K, 652.39 kPa, x1 = 0.2658	11.7012 kg/m3
273.15 K, 652.4 kPa, x1 = 0.2658	11.7011 kg/m3
273.15 K, 659.32 kPa, x1 = 0.2658	11.841 kg/m3 and 11.8409 kg/m3 and 11.8406 kg/m3
273.15 K, 699.84 kPa, x1 = 0.5069	9.8667 kg/m3
273.15 K, 701.3 kPa, x1 = 0.5069	9.889 kg/m3
273.15 K, 701.31 kPa, x1 = 0.5069	9.8889 kg/m3
273.15 K, 701.32 kPa, x1 = 0.5069	9.8887 kg/m3
273.15 K, 705.89 kPa, x1 = 0.5069	9.9581 kg/m3
273.15 K, 711.37 kPa, x1 = 0.5069	10.0422 kg/m3
273.15 K, 711.71 kPa, x1 = 0.5069	10.0475 kg/m3
273.15 K, 711.89 kPa, x1 = 0.5069	10.0504 kg/m3
273.15 K, 712.05 kPa, x1 = 0.5069	10.0527 kg/m3
273.15 K, 776.08 kPa, x1 = 0.5069	11.034 kg/m3
273.15 K, 781.94 kPa, x1 = 0.5069	11.1239 kg/m3
273.15 K, 787.74 kPa, x1 = 0.5069	11.2144 kg/m3
273.15 K, 802.95 kPa, x1 = 0.5069	11.451 kg/m3
273.15 K, 803.19 kPa, x1 = 0.5069	11.4546 kg/m3
273.15 K, 803.43 kPa, x1 = 0.5069	11.4585 kg/m3
273.15 K, 829.51 kPa, x1 = 0.5069	11.8643 kg/m3
273.15 K, 829.52 kPa, x1 = 0.5069	11.8644 kg/m3 and 11.8643 kg/m3
273.15 K, 883.12 kPa, x1 = 0.5069	12.7095 kg/m3
273.15 K, 888.99 kPa, x1 = 0.5069	12.8025 kg/m3
273.15 K, 894.82 kPa, x1 = 0.5069	12.8951 kg/m3
273.15 K, 899.8 kPa, x1 = 0.7498	9.5967 kg/m3 and 9.5966 kg/m3
273.15 K, 899.82 kPa, x1 = 0.7498	9.5965 kg/m3
273.15 K, 907.75 kPa, x1 = 0.5069	13.1005 kg/m3
273.15 K, 907.76 kPa, x1 = 0.5069	13.1006 kg/m3
273.15 K, 929.46 kPa, x1 = 0.5069	13.4491 kg/m3
273.15 K, 930.26 kPa, x1 = 0.5069	13.4619 kg/m3
